Measurements: paper PMC6009888, “Design, synthesis, and pharmacological evaluation of 2-amino-5-nitrothiazole derived semicarbazones as dual inhibitors of monoamine oxidase and cholinesterase: effect of the size of aryl binding site” (Journal of Enzyme Inhibition and Medicinal Chemistry, 2017)
Where “and” joins values, the source holds several entries; their conditions need not be identical. Equal entries are not always repeated.

Columns and labels:
rat brain AChE = biological target: T1, rat brain AChE (Rattus norvegicus, UniProt P37136); assay: biochemical; type: biochemical; settings: for AChE: fold less active relative to compound 19: diaryl analogues; for IC50: rat brain AChE, ACTI substrate, mean ± SEM, triplicate, read-out: AChE In vitro IC50 (µM) ± SEM
T1 construct: the resulting clear supernatants obtained were used as enzyme sources; from tissue; host or cells: rat brain cortex homogenate, 10,000 g supernatant
T1 sequence (P37136 32-614): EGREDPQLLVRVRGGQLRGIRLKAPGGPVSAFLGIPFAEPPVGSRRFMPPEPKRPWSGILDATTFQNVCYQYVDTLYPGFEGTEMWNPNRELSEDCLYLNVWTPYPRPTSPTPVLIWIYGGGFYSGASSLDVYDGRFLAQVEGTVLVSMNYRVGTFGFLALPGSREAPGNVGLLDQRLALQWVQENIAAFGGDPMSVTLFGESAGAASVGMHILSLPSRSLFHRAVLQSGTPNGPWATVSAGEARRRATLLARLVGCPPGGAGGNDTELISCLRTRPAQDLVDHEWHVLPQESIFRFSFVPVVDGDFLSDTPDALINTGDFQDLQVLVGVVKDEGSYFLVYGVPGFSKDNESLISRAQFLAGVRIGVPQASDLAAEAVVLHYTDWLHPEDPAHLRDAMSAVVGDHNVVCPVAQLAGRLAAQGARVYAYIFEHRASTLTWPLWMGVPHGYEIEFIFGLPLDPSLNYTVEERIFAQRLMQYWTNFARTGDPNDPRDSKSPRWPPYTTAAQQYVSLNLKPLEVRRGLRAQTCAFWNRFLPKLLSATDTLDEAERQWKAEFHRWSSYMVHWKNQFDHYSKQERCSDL
Description: Rat brain was used as a source of AChE enzyme. Rats were separately decapitated, the brain cortices quickly removed, weighed and homogenised in cold 10 mM Tris-HCl buffer, pH 7.2, containing 160 mM sucrose. The homogenates were centrifuged at 10,000 g for 10 min at 4 °C, and the resulting clear supernatants obtained were used as enzyme sources that were divided into aliquots and stored at −20 °C.
(§1) About 30 µl of enzyme sample (AChE) was added to 60 µl of 20 mM sodium phosphate buffer (pH 7.4) and were incubated in the presence of 30 µl of 10 mM DTNB solution with different concentrations of the test compounds. The enzyme reaction was initiated by the addition of 30 µl of 0.8 mM ACTI. The mixtures were incubated for 15 min at 25 °C. […] Control experiments were carried out without inhibitor, and blanks were run without AChE enzyme. All the assays were performed in triplicate. IC50 values were determined using the GraphPad Prism 5.0 (San Diego, CA) and the results were expressed as mean ± SEM.
(§2) 0, 15, 30 and 60 min at 25 °C in sodium phosphate buffer (20 mM, pH 7.4) and DTNB solution (10 mM). […] The reaction was further incubated at 25 °C for a further 15 min and the residual enzyme activities were measured and the bar graphs were constructed. All measurements were carried out in triplicate and are expressed as mean ± SEM.

[1] = In vitro DPPH radical scavenging assay; settings: test sample 100 µg/ml, 100 µM methanolic DPPH, 30 min, 517 nm
Description: Antioxidant activity of the synthesised compounds (10 mg/ml) was evaluated using the radical scavenging capability against the stable free radical, 2,2′-diphenyl-1-picryl hydrazyl (DPPH·). The DPPH· scavenging capability was determined using UV based spectrophotometric assay. About 200 µl of the test sample solution (100 µg/ml) was added to 4 ml of 100 µM methanolic DPPH. […] Ascorbic acid (100 µg/ml) was used as reference. The percentage inhibition of DPPH activity was estimated using the formula: Percent (%) inhibition of DPPH activity = Acontrol-Asample/Acontrol×100 where Acontrol is the absorbance of DPPH· in methanol without an antioxidant and Asample is the absorbance of DPPH· in the presence of an antioxidant.

mice = assay: Neurotoxicity screening (rotarod test); type: in vivo; settings: 30 mg/kg i.p.
Description: The neurotoxicity screening was undertaken according to the method followed by the National Institute of Health, using their reported procedures[55]^,[56]. Male albino mice (CF-1 strain or Swiss, 18–25 g) were used as experimental animals. The animals were housed in metabolic cages, and allowed free access to food and water. The test compounds were suspended in 0.5% methylcellulose/water mixture or in polyethylene glycol (PEG 200).
Minimal motor impairment was measured in mice by the rotarod test. The mice were trained to stay on an accelerating rotarod that rotates at six revolutions per minute. The rod diameter was 3.2 cm. Trained animals were given i.p. injection of the selected inhibitors at a dose of 30 mg/kg. Neurotoxicity was indicated by the inability of the animal to maintain equilibrium on the rod for at least 1 min in each of the three trials.

physchem = settings: octanol/water
MAO-B = biological target: T2, MAO-B (Rattus norvegicus, UniProt P19643); assay: biochemical; settings: for SI (selectivity index for MAO-B): ratio of experimental IC50(MAO-A)/IC50(MAO-B)
T2 construct: employing crude rat brain mitochondrial suspension; from tissue; host or cells: brain mitochondria of adult Wistar rats
T2 sequence (P19643 1-520): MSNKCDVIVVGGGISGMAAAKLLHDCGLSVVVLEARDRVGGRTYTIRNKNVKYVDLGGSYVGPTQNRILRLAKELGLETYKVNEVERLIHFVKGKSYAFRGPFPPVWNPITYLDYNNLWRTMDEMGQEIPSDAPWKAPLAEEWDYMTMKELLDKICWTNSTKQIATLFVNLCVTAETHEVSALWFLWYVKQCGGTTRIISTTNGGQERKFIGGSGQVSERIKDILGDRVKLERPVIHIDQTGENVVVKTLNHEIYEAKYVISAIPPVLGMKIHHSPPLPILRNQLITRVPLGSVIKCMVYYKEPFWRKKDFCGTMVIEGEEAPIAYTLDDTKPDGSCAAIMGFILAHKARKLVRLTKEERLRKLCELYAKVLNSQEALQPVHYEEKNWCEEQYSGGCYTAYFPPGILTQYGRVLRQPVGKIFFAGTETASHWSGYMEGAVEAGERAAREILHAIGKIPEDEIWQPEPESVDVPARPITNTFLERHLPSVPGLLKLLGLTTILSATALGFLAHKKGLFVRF
Description: (§3) Rat brain mitochondria were used as a source of MAO isoforms. All operations were carried out at 4 °C[50]. Male and female adult Wistar rats weighing 200–220 g were decapitated. All brains were rapidly removed and homogenised with a Potter–Elvehjem homogeniser in cold 0.32 M sucrose and 50 mM Tris-HCl, pH 8.2 (10:1, v/w). The homogenate was centrifuged twice at 1000 g for 5 min at 4 °C. The resulting supernatant was centrifuged at 20,000 g for 20 min. The mitochondrial pellet obtained was suspended in 100 mM sodium phosphate buffer, pH 7.4 (4:1, v/w), fractionated in plastic vials to 500 µl samples and stored at −80 °C. Before use, mitochondria were diluted with 100 mM sodium phosphate buffer to give a working solution of 0.80 mg of protein per millilitre.
(§4) The experiments were carried out under all the suitable laboratory conditions. […] An aliquot was made to contain mixture of 55 µl mitochondrial suspension (0.80 mg of protein/ml), 90 µl 50 mM Tris-HCl buffer, pH 8.2 and 30 µl solubilising solution (control or inhibitor solution at five different concentrations). The reaction was initiated by adding 25 µl of serotonin (4 mM, substrate for MAO-A) and 25 µl benzylamine (0.1 M, substrate for MAO-B) for the determination of MAO-A and MAO-B activity, respectively. The mixture was incubated at 37 °C for 30 min and the reaction was stopped by the addition of 50 µl of 1 N HCl. The absorbance associated with the production of 5-hydroxyindolacetic acid was measured at 280 nm for the estimation of MAO-A while for MAO-B estimation, the absorbance was measured at 250 nm due to the formation of benzaldehyde. All the assays were performed in triplicate. Control experiments were carried out without inhibitor and blanks were run without mitochondrial suspension.
(§5) Data are expressed as mean ± standard error mean (SEM) of experiments performed in triplicate.
as §2, with “37” for “25”, “Tris-HCl” for “sodium phosphate”, “(50” for “(20”, “8.2).” for “7.4) and DTNB solution (10 mM).”, “reactions were” for “reaction was”

MAO-A = biological target: T3, MAO-A (Rattus norvegicus, UniProt P21396); assay: In vitro MAO-A inhibition assay (rat brain mitochondria, serotonin substrate); type: biochemical; settings: rat brain mitochondria, serotonin substrate, mean ± SEM, triplicate; read-out: MAO-A In vitro IC50 (µM) ± SEM
T3 construct: employing crude rat brain mitochondrial suspension; from tissue; host or cells: brain mitochondria of adult Wistar rats
T3 sequence (P21396 1-526): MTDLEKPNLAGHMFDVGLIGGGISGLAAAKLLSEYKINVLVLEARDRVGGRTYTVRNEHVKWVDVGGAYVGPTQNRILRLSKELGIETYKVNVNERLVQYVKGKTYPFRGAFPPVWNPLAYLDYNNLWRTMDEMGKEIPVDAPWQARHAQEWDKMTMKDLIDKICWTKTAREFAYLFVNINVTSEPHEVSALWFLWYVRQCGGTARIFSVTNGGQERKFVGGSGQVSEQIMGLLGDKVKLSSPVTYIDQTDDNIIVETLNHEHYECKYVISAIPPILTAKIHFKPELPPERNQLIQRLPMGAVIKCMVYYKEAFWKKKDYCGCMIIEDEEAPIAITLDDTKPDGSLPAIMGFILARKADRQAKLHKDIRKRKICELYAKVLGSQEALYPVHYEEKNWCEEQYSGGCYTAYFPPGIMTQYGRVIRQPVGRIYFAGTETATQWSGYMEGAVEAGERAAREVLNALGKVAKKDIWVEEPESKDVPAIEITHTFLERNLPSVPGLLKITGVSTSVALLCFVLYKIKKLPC
Description: as §3, §4, §5
as §2, with “37” for “25”, “Tris-HCl” for “sodium phosphate”, “(50” for “(20”, “8.2).” for “7.4) and DTNB solution (10 mM).”, “reactions were” for “reaction was”

equine serum BuChE = biological target: T4, equine serum BuChE (Equus caballus, UniProt P81908); assay: In vitro BuChE inhibition assay (Ellman's method, equine serum BuChE); type: biochemical; settings: for IC50: equine serum BuChE, BuTI substrate, mean ± SEM, read-out: BuChE In vitro IC50 (µM) ± SEM
T4 construct: equine serum BuChE was used as enzyme; purchased Sigma-Aldrich; host or cells: equine serum
T4 sequence (P81908 whole entry): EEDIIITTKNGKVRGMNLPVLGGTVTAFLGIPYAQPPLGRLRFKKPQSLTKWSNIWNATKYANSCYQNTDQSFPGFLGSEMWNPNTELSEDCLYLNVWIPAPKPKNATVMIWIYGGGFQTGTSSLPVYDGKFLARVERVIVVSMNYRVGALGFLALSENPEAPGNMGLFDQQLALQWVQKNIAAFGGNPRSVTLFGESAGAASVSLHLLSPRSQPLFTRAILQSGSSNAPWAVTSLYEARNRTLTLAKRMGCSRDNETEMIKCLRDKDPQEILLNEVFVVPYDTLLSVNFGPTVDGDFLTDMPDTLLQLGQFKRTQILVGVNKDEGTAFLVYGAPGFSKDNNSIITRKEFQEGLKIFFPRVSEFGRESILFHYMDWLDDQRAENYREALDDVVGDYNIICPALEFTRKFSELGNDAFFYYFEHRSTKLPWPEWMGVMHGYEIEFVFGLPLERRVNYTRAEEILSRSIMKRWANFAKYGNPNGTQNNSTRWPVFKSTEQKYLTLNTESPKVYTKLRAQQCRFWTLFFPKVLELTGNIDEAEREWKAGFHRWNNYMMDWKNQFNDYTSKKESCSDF
Description: as §1
The BuChE activity was assayed as per the procedure followed for AChE activity except that equine serum BuChE was used as enzyme and butyrylthiocholine iodide (BuTI) was used as substrate.
as §2

Structure (SMILES)	AChE: fold less active relative to compound 19 (rat brain AChE) [fold]	IC50 (rat brain AChE) [µM]	AChE: fold more active relative to compound 7 (rat brain AChE; ratio of IC50 values) [fold]	% inhibition of DPPH activity [1] [%]	Neurotoxicity (animals that exhibit toxicity / animals tested) (mice; 0.5 h)	Neurotoxicity (animals that exhibit toxicity / animals tested) (mice; 1 h)	Neurotoxicity (animals that exhibit toxicity / animals tested) (mice; 2 h)	Neurotoxicity (animals that exhibit toxicity / animals tested) (mice; 4 h)	logP (physchem)	IC50 (MAO-B) [µM]	MAO-B: fold reduction in the activity (hydroxyl vs dichloro diaryl analogue 19) (MAO-B; diaryl analogues) [fold]	MAO-B: fold less active relative to compound 7 (MAO-B; ratio of IC50 values) [fold]	SI (selectivity index for MAO-B) (MAO-B)	IC50 (MAO-A)	Mode of BuChE inhibition (equine serum BuChE; Lineweaver–Burk plots, BuTI)	IC50 (equine serum BuChE) [µM]	Reversibility of BuChE inhibition (equine serum BuChE; time-dependent inhibition, pre-incubation 0, 15, 30, 60 min)	BuChE: fold less active relative to compound 17 (equine serum BuChE; diaryl analogues) [fold]	AChE: fold less active than compound 14 (rat brain AChE; isomeric dichloro derivatives) [fold]	MAO-B: fold less active than compound 13 (MAO-B; isomeric dichloro derivatives) [fold]
O=C(NN=C(c1ccccc1)c1ccc(O)cc1)Nc1ncc([N+](=O)[O-])s1 [Compound 18, 1-((4-Hydroxyphenyl)(phenyl)methylene)-4-(5-nitrothiazol-2-yl)semicarbazide]	~1.83	2.66 ± 0.084	~4.97	10.77	0/4	0/4	0/4	0/4	2.9	158 ± 3.71	~107	~10.7	217.26	> 100 µM and 34300 µM						
O=C(NN=Cc1ccc(Cl)cc1Cl)Nc1ncc([N+](=O)[O-])s1 [Compound 13, 1-(2,4-Dichlorobenzylidene)-4-(5-nitrothiazol-2-yl)semicarbazide]		141 ± 3.11		39.39	0/4	0/4	0/4	0/4	2.5	3.49 ± 0.098			3001.15	10470 ± 13.9 µM						
O=C(NN=C(c1ccccc1)c1ccc(Cl)cc1)Nc1ncc([N+](=O)[O-])s1 [Compound 17, 1-((4-Chlorophenyl)(phenyl)methylene)-4-(5-nitrothiazol-2-yl)semicarbazide]		11.5 ± 0.35							3.6	28.52 ± 0.079			170.83	4872 ± 5.81 µM	mixed-type	0.024 ± 0.002	reversible			
O=C(NN=C(c1ccccc1)c1ccccc1)Nc1ncc([N+](=O)[O-])s1 [Compound 16, 1-(Diphenylmethylene)-4-(5-nitrothiazol-2-yl)semicarbazide]	~3.35	4.86 ± 0.81			0/4	0/4	0/4	0/4	3.4	28.3 ± 0.45			3.15	< 100 µM and 89.3 µM		1.76 ± 0.035		~73		
O=C(NN=C1C(=O)Nc2ccccc21)Nc1ncc([N+](=O)[O-])s1 [Compound 20, 4-(5-Nitrothiazol-2-yl)-1-(2-oxoindolin-3-ylidene)semicarbazide]		54.8 ± 0.92		47.16	0/4	0/4	0/4	0/4	1.1	4.51 ± 0.086			499.22	2250 ± 12.8 µM						
O=C(NN=Cc1cccc(Cl)c1Cl)Nc1ncc([N+](=O)[O-])s1 [Compound 12, 1-(2,3-Dichlorobenzylidene)-4-(5-nitrothiazol-2-yl)semicarbazide]		101 ± 1.58		42.56	0/4	0/4	0/4	0/4	2.6	8.51 ± 0.132			395.79	3369 ± 6.43 µM					~9.4	~2.4
